Results published in US9730944B2, “Antiviral activity of novel bicyclic heterocycles” (priority 2010, dated 2017).
In brackets after ≈: the same amount, converted by molar mass. Read-outs that look alike come from different tables or passages of the source.

What was measured:
[1] = Cytostatic/cytotoxic effect in Hela Rh cells (rhinovirus methodology, MTS); conditions: human, CC50, Hela Rh cells
hRV-39 = test: Rhinovirus type 39 antiviral assay in Hela Rh cells, MTS readout; type: cell-based, Human rhinovirus; conditions: Human rhinovirus sp., HRV39, HeLa Rh, Hela Rh cells; read-out: hRV-39 EC50
hRV-29 = test: Rhinovirus type 29 antiviral assay in Hela Rh cells, MTS readout; type: cell-based; conditions: Human rhinovirus sp., HRV29, HeLa Rh, Hela Rh cells; read-out: hRV-29 EC50
hRV-45 = test: Rhinovirus type 45 antiviral assay in Hela Rh cells, MTS readout; type: cell-based, Human rhinovirus; conditions: Human rhinovirus sp., HRV45, HeLa Rh, Hela Rh cells; read-out: hRV-45 EC50
hRV-15 = test: Rhinovirus type 15 antiviral assay in Hela Rh cells, MTS readout; type: cell-based, Human rhinovirus; conditions: Human rhinovirus sp., HRV15, HeLa Rh, Hela Rh cells; read-out: hRV-15 EC50
hRV-14 = test: Rhinovirus type 14 antiviral assay in Hela Rh cells, MTS readout; type: cell-based, Human rhinovirus; conditions: Rhinovirus B, HRV14, HeLa Rh, Hela Rh cells; read-out: hRV-14 EC50
hRV-72 = test: Rhinovirus type 72 antiviral assay in Hela Rh cells, MTS readout; type: cell-based, Human rhinovirus; conditions: Human rhinovirus sp., HRV72, HeLa Rh, Hela Rh cells; read-out: hRV-72 EC50
hRV-41 = test: Rhinovirus type 41 antiviral assay in Hela Rh cells, MTS readout; type: cell-based, Human rhinovirus; conditions: Human rhinovirus sp., HRV41, HeLa Rh, Hela Rh cells; read-out: hRV-41 EC50
hRV-2 = test: Rhinovirus type 2 antiviral assay in Hela Rh cells, MTS readout; type: cell-based, Human rhinovirus; conditions: Rhinovirus A, HRV2, HeLa Rh, Hela Rh cells; read-out: hRV-2 EC50
hRV-9 = test: Rhinovirus type 9 antiviral assay in Hela Rh cells, MTS readout; type: cell-based, Human rhinovirus; conditions: Human rhinovirus sp., HRV9, HeLa Rh, Hela Rh cells; read-out: hRV-9 EC50
hRV-63 = test: Rhinovirus type 63 antiviral assay in Hela Rh cells, MTS readout; type: cell-based, Human rhinovirus; conditions: Human rhinovirus sp., HRV63, HeLa Rh, Hela Rh cells; read-out: hRV-63 EC50
hRV-85 = test: Rhinovirus type 85 antiviral assay in Hela Rh cells, MTS readout; type: cell-based, Human rhinovirus; conditions: Human rhinovirus sp., HRV85, HeLa Rh, Hela Rh cells; read-out: hRV-85 EC50
hRV-70 = test: Rhinovirus type 70 antiviral assay in Hela Rh cells, MTS readout; type: cell-based, Human rhinovirus; conditions: Human rhinovirus sp., HRV70, HeLa Rh, Hela Rh cells; read-out: hRV-70 EC50
hRV-42 = test: Rhinovirus type 42 antiviral assay in Hela Rh cells, MTS readout; type: cell-based, Human rhinovirus; conditions: Human rhinovirus sp., HRV42, HeLa Rh, Hela Rh cells; read-out: hRV-42 EC50
poliovirus (PV type 2) = test: microbe, parasite or virus in culture; type: cell-based; conditions: Enterovirus C, read-out: PV-2 EC50
in vitro [2] = conditions: African green monkey, PV CC50
in vitro [3] = conditions: human, PV CC50
poliovirus (PV type 1) = test: microbe, parasite or virus in culture; type: cell-based; conditions: Enterovirus C, read-out: PV-1 EC50
[4] = test system: genotype 1a H-77 replicon; test: HCV-1a replicon potency in RLuc-1 cells, bioluminescence; type: cell-based; conditions: for HCV-1a Replicon Selectivity Index: CC50/EC50, genotype 1a replicon; for EC50: Hepatitis C virus, 72 h, read-out: HCV-1a Replicon EC50 (μM)
poliovirus (PV type 3) = test: microbe, parasite or virus in culture; type: cell-based; conditions: Enterovirus C, read-out: PV-3 EC50
[5] = Cytotoxicity in HCV-1a replicon cells, Promega CellTiter-Glo cell viability assay
HIV-2 strain (ROD) = test: Inhibition of replication of HIV-2 (ROD strain) in MT-4 cells, MTT assay; type: cell-based; conditions: Human immunodeficiency virus 2, MT4, 120 h; MT-4 cells, MTT assay, five days after infection, 50% protection from cytopathic effect; read-out: EC50 (μM) HIV-2 (ROD)
HIV-1 strain IIIB = test: Inhibition of replication of HIV-1 (IIIB strain) in MT-4 cells, MTT assay; type: cell-based; conditions: Human immunodeficiency virus 1, IIIB, MT4, 120 h; MT-4 cells, MTT assay, five days after infection, 50% protection from cytopathic effect; read-out: EC50 (μM) HIV-1 (IIIB)
in vitro [6] = conditions: human
hRV-86 = test: Rhinovirus type 86 antiviral assay in Hela Rh cells, MTS readout; type: cell-based, Human rhinovirus; conditions: Human rhinovirus sp., HRV86, HeLa Rh, Hela Rh cells; read-out: hRV-86 EC50

Compound	CC50 [1]	EC50 (hRV-39)	EC50 (hRV-29)	EC50 (hRV-45)	EC50 (hRV-15)	EC50 (hRV-14)	EC50 (hRV-72)	EC50 (hRV-41)	EC50 (hRV-9)	EC50 (hRV-63)	EC50 (poliovirus (PV type 2); HeLa)	EC50 (poliovirus (PV type 2); Vero)	CC50 (in vitro [2])	CC50 (in vitro [3])	EC50 (poliovirus (PV type 1); HeLa)	EC50 (poliovirus (PV type 1); Vero)	EC50 [4]	EC50 (poliovirus (PV type 3); HeLa)	EC50 (poliovirus (PV type 3); Vero)	CC50 at 72 h [5]	further results
Cc1ccc(-c2nc3c(N4CCN(C(=O)COc5ccc(Cl)cc5)CC4)nc(N)nc3s2)cc1 [Example 295, 1-(4-(5-amino-2-p-tolylthiazolo[5,4-d]pyrimidin-7-yl)piperazin-1-yl)-2-(4-chlorophenoxy)ethanone]	> 50 µg/mL																				
COc1ccc(OCC(=O)N2CCN(c3nc(N)nc4sc(-c5ccc(C)cc5)nc34)CC2)cc1 [Example 294, 1-(4-(5-amino-2-p-tolylthiazolo[5,4-d]pyrimidin-7-yl)piperazin-1-yl)-2-(4-methoxyphenoxy)ethanone]	> 50 µg/mL	< 0.02 µg/mL	< 0.02 µg/mL	< 0.39 µg/mL	1.82 µg/mL (≈ 3.71 µM)	29.1 µg/mL (≈ 59.4 µM)	20.6 µg/mL (≈ 41.9 µM)	0.43 µg/mL (≈ 0.876 µM)	0.02 µg/mL (≈ 0.0408 µM)	< 0.39 µg/mL											EC50 (hRV-2): < 0.02 µg/mL; EC50 (hRV-85): < 0.39 µg/mL; EC50 (hRV-70): 5.26 µg/mL (≈ 10.7 µM); EC50 (hRV-42): 0.63 µg/mL (≈ 1.28 µM)
Nc1nc(N2CCN(C(=O)COc3ccc(Cl)cc3)CC2)c2nc(C3CCCCC3)oc2n1 [Example 187, 5-amino-2-cyclohexyl-7-[4-(4-chlorophenoxyacetyl)piperazin-1-yl]oxazolo[5,4-d]pyrimidine]											> 50 µg/mL	≥ 50 µg/mL	118 µg/mL (≈ 250 µM)	> 50 µg/mL	> 50 µg/mL	> 50 µg/mL	19 µM	> 50 µg/mL	> 50 µg/mL	24.3 µM	HCV-1a Replicon Selectivity Index [4]: 1.3
Nc1nc(N2CCN(C(=O)COc3ccc(Cl)cc3)CC2)c2nc(CCc3ccc(F)cc3)sc2n1 [Example 49, 1-(4-(5-amino-2-(4-fluorophenethyl)-thiazolo[5,4-d]pyrimidin-7-yl)piperazin-1-yl)-2-(4-chlorophenoxy)ethanone]											0.13 µg/mL (≈ 0.247 µM)	0.21 µg/mL (≈ 0.398 µM)	101 µg/mL (≈ 192 µM)	> 50 µg/mL	0.13 µg/mL (≈ 0.247 µM)	0.13 µg/mL (≈ 0.247 µM)	42.1 µM	> 50 µg/mL	1.17 µg/mL (≈ 2.22 µM)	> 44.4 µM	HCV-1a Replicon Selectivity Index [4]: >1.1; EC50 (HIV-2 strain (ROD)): > 7.06 µM; EC50 (HIV-1 strain IIIB): 1.13 µM; CC50 (in vitro [6]): > 50 µM
Cc1ccc(CCc2nc3c(N4CCN(C(=O)COc5ccc(Cl)cc5)CC4)nc(N)nc3s2)cc1 [Example 260, 1-(4-(5-amino-2-(4-methylphenethyl)thiazolo[5,4-d]pyrimidin-7-yl)piperazin-1-yl)-2-(4-chlorophenoxy)ethanone]	> 50 µg/mL	13 µg/mL (≈ 24.8 µM)	> 50 µg/mL	2.46 µg/mL (≈ 4.7 µM)	> 50 µg/mL	> 50 µg/mL	> 50 µg/mL	> 50 µg/mL	> 50 µg/mL	27.9 µg/mL (≈ 53.3 µM)											EC50 (hRV-85): 1.35 µg/mL (≈ 2.58 µM); EC50 (hRV-86): > 50 µg/mL; EC50 (hRV-70): > 50 µg/mL; EC50 (hRV-42): > 50 µg/mL
Nc1nc(N2CCN(C(=O)COc3ccc(Cl)cc3)CC2)c2nc(-c3ccc(F)cc3)[nH]c2n1 [Example 389, 1-(4-(2-amino-8-(4-fluorophenyl)-9H-purin-6-yl)piperazin-1-yl)-2-(4-chlorophenoxy)ethanone]											16.7 µg/mL (≈ 34.6 µM)	≥ 50 µg/mL	> 150 µg/mL	> 50 µg/mL	> 16.7 µg/mL	> 50 µg/mL	> 44.4 µM	37.6 µg/mL (≈ 78 µM)	> 50 µg/mL	> 44.4 µM	
CCCCCc1nc2c(N3CCN(C(=O)COc4ccc(Cl)cc4)CC3)nc(N)nc2s1 [Example 297, 1-(4-(5-amino-2-pentylthiazolo[5,4-d]pyrimidin-7-yl)piperazin-1-yl)-2-(4-chlorophenoxy)ethanone]	> 50 µg/mL	0.08 µg/mL (≈ 0.168 µM)	0.13 µg/mL (≈ 0.274 µM)	2.29 µg/mL (≈ 4.82 µM)	0.38 µg/mL (≈ 0.8 µM)	0.4 µg/mL (≈ 0.842 µM)	2.46 µg/mL (≈ 5.18 µM)	1.06 µg/mL (≈ 2.23 µM)	0.14 µg/mL (≈ 0.295 µM)	0.53 µg/mL (≈ 1.12 µM)											EC50 (hRV-85): 1.01 µg/mL (≈ 2.13 µM); EC50 (hRV-86): 2.42 µg/mL (≈ 5.09 µM); EC50 (hRV-70): 4.31 µg/mL (≈ 9.07 µM); EC50 (hRV-42): 4.45 µg/mL (≈ 9.37 µM)
COCc1nc2c(N3CCN(C(=O)COc4ccc(Cl)cc4)CC3)nc(N)nc2o1 [Example 186, 5-amino-7-[4-(4-chlorophenoxyacetyl)piperazin-1-yl]-2-methoxylmethyloxazolo[5,4-d]pyrimidine]											9.42 µg/mL (≈ 21.8 µM)	2.96 µg/mL (≈ 6.84 µM)	95.2 µg/mL (≈ 220 µM)	> 50 µg/mL	3.16 µg/mL (≈ 7.3 µM)	1.07 µg/mL (≈ 2.47 µM)	> 44.4 µM	3.21 µg/mL (≈ 7.42 µM)	10.7 µg/mL (≈ 24.7 µM)	> 44.4 µM	
Nc1nc(N2CCN(C(=O)COc3ccc(Cl)cc3)CC2)c2nc(CCc3ccccc3)oc2n1 [Example 189, 5-amino-2-(2-phenylethyl)-7-[4-(4-chlorophenoxyacetyl)piperazin-1-yl]oxazolo[5,4-d]pyrimidine]											1.15 µg/mL (≈ 2.33 µM)	0.4 µg/mL (≈ 0.811 µM)	> 150 µg/mL	> 50 µg/mL	1.14 µg/mL (≈ 2.31 µM)	0.86 µg/mL (≈ 1.74 µM)	20.6 µM	> 50 µg/mL	1.19 µg/mL (≈ 2.41 µM)	40.5 µM	HCV-1a Replicon Selectivity Index [4]: 2.0
NC(=O)Cc1nc(N2CCN(C(=O)COc3ccc(Cl)cc3)CC2)c2cc(-c3ccc(F)cc3)sc2n1 [Example 358, 2-(4-(4-(2-(4-chlorophenoxy)acetyl)piperazin-1-yl)-6-(4-fluorophenyl)thieno[2,3-d]pyrimidin-2-yl)acetamide]											≥ 50 µg/mL	> 50 µg/mL	> 150 µg/mL	> 50 µg/mL	> 50 µg/mL	> 50 µg/mL		> 50 µg/mL	> 50 µg/mL		EC50 (HIV-2 strain (ROD)): > 19.1 µM; EC50 (HIV-1 strain IIIB): > 19.1 µM; CC50 (in vitro [6]): > 19.1 µM
Nc1nc(N2CCN(C(=O)COc3ccc(Cl)cc3Cl)CC2)c2nc(CCc3ccc(F)cc3)sc2n1 [Example 54, 1-(4-(5-amino-2-(4-fluorophenethyl)thiazolo[5,4-d]pyrimidin-7-yl)piperazin-1-yl)-2-(2,4-dichlorophenoxy)ethanone]											≥ 50 µg/mL	≥ 50 µg/mL	138 µg/mL (≈ 245 µM)	> 50 µg/mL	> 50 µg/mL	> 50 µg/mL		≥ 50 µg/mL	> 50 µg/mL		EC50 (HIV-2 strain (ROD)): > 157 µM; EC50 (HIV-1 strain IIIB): > 157 µM; CC50 (in vitro [6]): 157 µM
COc1ccc(OCC(=O)N2CCN(c3nc(N)nc4sc(Cc5ccc(F)cc5)nc34)CC2)cc1 [Example 230, 1-(4-(5-amino-2-(4-fluorobenzyl)thiazolo[5,4-d]pyrimidin-7-yl)piperazin-1-yl)-2-(4-methoxyphenoxy)ethanone]	> 50 µg/mL	0.04 µg/mL (≈ 0.0787 µM)	0.04 µg/mL (≈ 0.0787 µM)	1.13 µg/mL (≈ 2.22 µM)	0.38 µg/mL (≈ 0.747 µM)	0.39 µg/mL (≈ 0.767 µM)	8.55 µg/mL (≈ 16.8 µM)	0.58 µg/mL (≈ 1.14 µM)	0.09 µg/mL (≈ 0.177 µM)	0.54 µg/mL (≈ 1.06 µM)											EC50 (hRV-85): 0.61 µg/mL (≈ 1.2 µM); EC50 (hRV-86): 2.36 µg/mL (≈ 4.64 µM); EC50 (hRV-70): 2.37 µg/mL (≈ 4.66 µM); EC50 (hRV-42): < 0.39 µg/mL
